{
  "source": "the supplement of paper PMC10307832",
  "assay_in_all_cases": "relative viability (nuclei count vs DMSO), 5 days (fraction); higher = more cells survive",
  "key": {"[1]": {"compound": "CC(C)C[C@H](NC(=O)[C@H](Cc1ccccc1)NC(=O)c1cnccn1)B(O)O [Bortezomib] + Cc1nc(Nc2ncc(C(=O)Nc3c(C)cccc3Cl)s2)cc(N2CCN(CCO)CC2)n1 [Dasatinib] (partner 0.075 µM)", "procedure,_shortened": "(§1)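 Nuclei were stained with Hoechst during a one-step fixation (final 0.05% Triton X-100, 1% formaldehyde, 1 ug/ml Hoechst) carried out 5 days after dosing, then counted on 4× images. The cells, lung cancer lines in 1536-well plates, had been dosed by pin tool the day after seeding with one drug alone or a fixed anchor-drug dose plus five library-drug doses (not always all listed) in √10 steps. Relative viability is the nuclei count in treated wells divided by that in vehicle wells, and each value is the median of duplicate plates.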"}, "[2]": {"compound": "CC(C)C[C@H](NC(=O)[C@H](Cc1ccccc1)NC(=O)c1cnccn1)B(O)O [Bortezomib] + CCNC(=O)c1noc(-c2cc(C(C)C)c(O)cc2O)c1-c1ccc(CN2CCOCC2)cc1 [Luminespib] (partner 0.01 µM)", "procedure,_shortened": "as §1"}, "[3]": {"compound": "CC1=CC(=NN1)NC2=CC(=NC(=N2)/C=C/C3=CC=CC=C3)N4CCN(CC4)C + O=C(c1cc(Cc2n[nH]c(=O)c3ccccc23)ccc1F)N1CCN(C(=O)C2CC2)CC1 [Olaparib] (partner 8 µM)", "procedure,_shortened": "as §1"}, "[4]": {"compound": "CC1=CC(=NN1)NC2=CC(=NC(=N2)/C=C/C3=CC=CC=C3)N4CCN(CC4)C + Nc1nc2[nH]cc(CCc3ccc(C(=O)N[C@@H](CCC(=O)O)C(=O)O)cc3)c2c(=O)[nH]1 [Pemetrexed] (partner 0.2 µM)", "procedure,_shortened": "as §1"}},
  "data": [
    {"cell line": "NCI-H727", "values": [
      {"measurement": "relative viability", "setting": "[1]; first compound 0.0002 µM", "value": 0.369},
      {"measurement": "relative viability", "setting": "[1]; first compound 0.000632 µM", "value": 0.38},
      {"measurement": "relative viability", "setting": "[1]; first compound 0.002 µM", "value": 0.415},
      {"measurement": "relative viability", "setting": "[1]; first compound 0.006325 µM", "value": 0.184},
      {"measurement": "relative viability", "setting": "[1]; first compound 0.02 µM", "value": 0.147},
      {"measurement": "relative viability", "setting": "[2]; first compound 0.0002 µM", "value": 0.374},
      {"measurement": "relative viability", "setting": "[2]; first compound 0.000632 µM", "value": 0.321},
      {"measurement": "relative viability", "setting": "[2]; first compound 0.002 µM", "value": 0.358},
      {"measurement": "relative viability", "setting": "[2]; first compound 0.006325 µM", "value": 0.382},
      {"measurement": "relative viability", "setting": "[2]; first compound 0.02 µM", "value": 0.279},
      {"measurement": "relative viability", "setting": "[3]; first compound 0.08 µM", "value": 0.708},
      {"measurement": "relative viability", "setting": "[3]; first compound 0.253 µM", "value": 0.635},
      {"measurement": "relative viability", "setting": "[3]; first compound 0.8 µM", "value": 0.791},
      {"measurement": "relative viability", "setting": "[3]; first compound 2.53 µM", "value": 0.722},
      {"measurement": "relative viability", "setting": "[3]; first compound 8 µM", "value": 0.44}
    ]},
    {"cell line": "PC-3 [JPC-3]", "values": [
      {"measurement": "relative viability", "setting": "[1]; first compound 0.0002 µM", "value": 0.961},
      {"measurement": "relative viability", "setting": "[1]; first compound 0.000632 µM", "value": 0.994},
      {"measurement": "relative viability", "setting": "[1]; first compound 0.002 µM", "value": 0.991},
      {"measurement": "relative viability", "setting": "[1]; first compound 0.006325 µM", "value": 0.199},
      {"measurement": "relative viability", "setting": "[1]; first compound 0.02 µM", "value": 0.106},
      {"measurement": "relative viability", "setting": "[2]; first compound 0.0002 µM", "value": 0.663},
      {"measurement": "relative viability", "setting": "[2]; first compound 0.000632 µM", "value": 0.669},
      {"measurement": "relative viability", "setting": "[2]; first compound 0.002 µM", "value": 0.505},
      {"measurement": "relative viability", "setting": "[2]; first compound 0.006325 µM", "value": 0.226},
      {"measurement": "relative viability", "setting": "[2]; first compound 0.02 µM", "value": 0.127},
      {"measurement": "relative viability", "setting": "[3]; first compound 0.08 µM", "value": 1.16},
      {"measurement": "relative viability", "setting": "[3]; first compound 0.253 µM", "value": 1.31},
      {"measurement": "relative viability", "setting": "[3]; first compound 0.8 µM", "value": 1.22},
      {"measurement": "relative viability", "setting": "[3]; first compound 2.53 µM", "value": 1.09},
      {"measurement": "relative viability", "setting": "[3]; first compound 8 µM", "value": 0.615},
      {"measurement": "relative viability", "setting": "[4]; first compound 0.08 µM", "value": 1.15},
      {"measurement": "relative viability", "setting": "[4]; first compound 0.253 µM", "value": 1.2},
      {"measurement": "relative viability", "setting": "[4]; first compound 0.8 µM", "value": 1.03},
      {"measurement": "relative viability", "setting": "[4]; first compound 2.53 µM", "value": 0.849},
      {"measurement": "relative viability", "setting": "[4]; first compound 8 µM", "value": 0.361}
    ]},
    {"cell line": "SW 1573", "values": [
      {"measurement": "relative viability", "setting": "[1]; first compound 0.0002 µM", "value": 0.488},
      {"measurement": "relative viability", "setting": "[1]; first compound 0.000632 µM", "value": 0.867},
      {"measurement": "relative viability", "setting": "[1]; first compound 0.002 µM", "value": 0.24},
      {"measurement": "relative viability", "setting": "[1]; first compound 0.006325 µM", "value": 0.0568},
      {"measurement": "relative viability", "setting": "[1]; first compound 0.02 µM", "value": 0.052},
      {"measurement": "relative viability", "setting": "[2]; first compound 0.0002 µM", "value": 0.162},
      {"measurement": "relative viability", "setting": "[2]; first compound 0.000632 µM", "value": 0.222},
      {"measurement": "relative viability", "setting": "[2]; first compound 0.002 µM", "value": 0.214},
      {"measurement": "relative viability", "setting": "[2]; first compound 0.006325 µM", "value": 0.0768},
      {"measurement": "relative viability", "setting": "[2]; first compound 0.02 µM", "value": 0.0532},
      {"measurement": "relative viability", "setting": "[3]; first compound 0.08 µM", "value": 0.442},
      {"measurement": "relative viability", "setting": "[3]; first compound 0.253 µM", "value": 0.413},
      {"measurement": "relative viability", "setting": "[3]; first compound 0.8 µM", "value": 0.377},
      {"measurement": "relative viability", "setting": "[3]; first compound 2.53 µM", "value": 0.111},
      {"measurement": "relative viability", "setting": "[3]; first compound 8 µM", "value": 0.0633},
      {"measurement": "relative viability", "setting": "[4]; first compound 0.08 µM", "value": 0.802},
      {"measurement": "relative viability", "setting": "[4]; first compound 0.253 µM", "value": 0.852},
      {"measurement": "relative viability", "setting": "[4]; first compound 0.8 µM", "value": 0.735},
      {"measurement": "relative viability", "setting": "[4]; first compound 2.53 µM", "value": 0.126},
      {"measurement": "relative viability", "setting": "[4]; first compound 8 µM", "value": 0.0679}
    ]},
    {"cell line": "NCI-H2228", "values": [
      {"measurement": "relative viability", "setting": "[1]; first compound 0.0002 µM", "value": 0.475},
      {"measurement": "relative viability", "setting": "[1]; first compound 0.000632 µM", "value": 0.464},
      {"measurement": "relative viability", "setting": "[1]; first compound 0.002 µM", "value": 0.328},
      {"measurement": "relative viability", "setting": "[1]; first compound 0.006325 µM", "value": 0.0587},
      {"measurement": "relative viability", "setting": "[1]; first compound 0.02 µM", "value": 0.0925},
      {"measurement": "relative viability", "setting": "[2]; first compound 0.0002 µM", "value": 0.129},
      {"measurement": "relative viability", "setting": "[2]; first compound 0.000632 µM", "value": 0.117},
      {"measurement": "relative viability", "setting": "[2]; first compound 0.002 µM", "value": 0.137},
      {"measurement": "relative viability", "setting": "[2]; first compound 0.006325 µM", "value": 0.0914},
      {"measurement": "relative viability", "setting": "[2]; first compound 0.02 µM", "value": 0.093},
      {"measurement": "relative viability", "setting": "[3]; first compound 0.08 µM", "value": 0.699},
      {"measurement": "relative viability", "setting": "[3]; first compound 0.253 µM", "value": 0.727},
      {"measurement": "relative viability", "setting": "[3]; first compound 0.8 µM", "value": 0.374},
      {"measurement": "relative viability", "setting": "[3]; first compound 2.53 µM", "value": 0.316},
      {"measurement": "relative viability", "setting": "[3]; first compound 8 µM", "value": 0.0565},
      {"measurement": "relative viability", "setting": "[4]; first compound 0.08 µM", "value": 0.306},
      {"measurement": "relative viability", "setting": "[4]; first compound 0.253 µM", "value": 0.309},
      {"measurement": "relative viability", "setting": "[4]; first compound 0.8 µM", "value": 0.276},
      {"measurement": "relative viability", "setting": "[4]; first compound 2.53 µM", "value": 0.0818},
      {"measurement": "relative viability", "setting": "[4]; first compound 8 µM", "value": 0.055}
    ]}
  ]
}
